According to US11149031B2, “Substituted N-(3-fluoropropyl)-pyrrolidine compounds, processes for their preparation and therapeutic uses thereof” (SANOFI, priority 2016, dated 2021):

Columns and labels:
[1] = target: His6-ERα298-554 WT (ERα ligand-binding domain) (Homo sapiens (Human), UniProt P03372); experiment: Test A: biochemical antagonist activity, LanthaScreen TR-FRET ERα coactivator assay, WT; details: protocol with 3 nM estradiol; read-out: Antagonism WT IC50
Description: (§1) Test A: Biochemical Antagonist Activity on Wild Type (WT) and Mutants
(§2) Estrogen Receptors Test A involves measuring the in vitro antagonist activity of the compounds of the invention on estrogen receptors.
(§3) The measurements of the antagonist activities were made using an estrogen receptor coactivator assay as described hereunder.
(§4) Antagonistic potency of compounds was evaluated using LanthaScreen® TR-FRET ERα Coactivator Assay (ThermoFisher) with modifications. […] The assay works in a homogeneous mix-and-read format. In a typical experiment, a 4 μL mixture of 0.5 nM His6-ERα298-554, 0.5 nM Tb-labeled His6 antibody, 250 nM PGC1a peptide, and 3 nM estradiol (or 10 nM estradiol) in 100 mM potassium phosphate, pH 7.4, 0.01% Tween-20, 0.02% NaN3, 5 mM DTT, was added to 40 nL test compound in DMSO and incubated overnight at room temperature. The TR-FRET 520:495 nm emission ratio was calculated and used to determine the IC50 value from a dose response curve fit to the 4-parameter logistic equation.

[2] = target: His6-ERα298-554 D538G mutant (ERα ligand-binding domain) (Homo sapiens (Human), UniProt P03372, D538G); experiment: Test A: biochemical antagonist activity, LanthaScreen TR-FRET ERα coactivator assay, D538G mutant; details: protocol with 3 nM estradiol; read-out: Antagonism D538G IC50
Description: as §1, §2, §3, §4

[3] = target: His6-ERα298-554 Y537S mutant (ERα ligand-binding domain) (Homo sapiens (Human), UniProt P03372, Y537S); experiment: Test A: biochemical antagonist activity, LanthaScreen TR-FRET ERα coactivator assay, Y537S mutant; details: protocol with 3 nM estradiol; read-out: Antagonism Y537S IC50
Description: as §1, §2, §3, §4

ERα in MCF7 cells = ERα in MCF7 cells (Homo sapiens (Human), UniProt P03372); experiment: Test C: estrogen receptor degradation activity, ERα in cell western assay in MCF7 cells; type: cell-based; details: for DC50: 4 hours post compound addition, ERα in cell western, read-out: Degradation IC50; for % Degradation at 3 μM: 4 hours, relative to fulvestrant
Description: Test C: Estrogen Receptor Degradation Activity
Test C involves measuring the in vitro degradation activity of the compounds of the invention.
The measurements of the degradation activities were made using abreast cancer cell ERα in cell western assay as described hereunder.
MCF7 cells (ATCC) were seeded in 384 wells microplate (collagen coated) at concentration of >9990 cells/30 μL per well in red phenol free MEM alpha medium (invitrogen) containing 5% charcoal dextran striped FBS. The following day, 9 points serial 1:5 dilution of each compound were added to the cells in 2.5 μL at final concentrations ranging from 3-0.000018 μM or 0.1 μM for fulvestrant (using as positive control). At 4 hours post compounds addition the cells were fixed by adding 25 μL of formalin (final concentration 5% formalin containing 0.1% triton) for 10 minutes at room temperature and then washed twice with PBS. Then, 50 μL of LI-COR blocking buffer containing 0.1% Triton was added to plate for 30 minutes at room temperature. LI-COR blocking buffer was removed and cells were incubated overnight at cold room with 50 μL anti-ER rabbit monoclonal antibody (Thermo scientific MA1-39540) diluted at 1:>999 in LI-COR blocking buffer containing 0.1% tween-20. Wells which were treated with blocking but no antibody were used as background control. Wells were washed twice with PBS (0.1% tween-20) and incubated at 37° C. for 60 minutes in LI-COR (0.1% tween-20) containing goat anti-rabbit antibody Alexa 488 (1:>999) and Syto-64 a DNA dye (2 μM final concentration). Cells were then washed 3 times in PBS and scanned in ACUMEN explorer (TTP-Labtech). Integrated intensities in the green fluorescence and red fluorescence were measured to determine the levels of ERα and DNA respectively.

ERα in MCF7 cells, sequence (P03372 whole entry): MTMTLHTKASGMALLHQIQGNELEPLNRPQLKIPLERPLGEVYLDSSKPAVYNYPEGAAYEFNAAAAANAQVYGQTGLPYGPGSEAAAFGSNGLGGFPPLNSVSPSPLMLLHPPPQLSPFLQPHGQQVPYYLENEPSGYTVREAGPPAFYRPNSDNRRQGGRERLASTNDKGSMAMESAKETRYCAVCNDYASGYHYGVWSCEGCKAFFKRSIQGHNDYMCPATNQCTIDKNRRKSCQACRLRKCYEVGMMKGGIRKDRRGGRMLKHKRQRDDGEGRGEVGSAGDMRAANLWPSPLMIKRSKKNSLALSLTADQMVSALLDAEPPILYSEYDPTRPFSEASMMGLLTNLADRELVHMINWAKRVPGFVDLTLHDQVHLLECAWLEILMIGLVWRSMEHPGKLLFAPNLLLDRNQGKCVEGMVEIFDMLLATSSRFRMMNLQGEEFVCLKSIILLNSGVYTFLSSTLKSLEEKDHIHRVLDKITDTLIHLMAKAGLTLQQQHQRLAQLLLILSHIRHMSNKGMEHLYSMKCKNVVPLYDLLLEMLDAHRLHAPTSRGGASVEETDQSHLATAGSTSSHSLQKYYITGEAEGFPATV
His6-ERα298-554 Y537S mutant (ERα ligand-binding domain), sequence (P03372 298-554 Y537S): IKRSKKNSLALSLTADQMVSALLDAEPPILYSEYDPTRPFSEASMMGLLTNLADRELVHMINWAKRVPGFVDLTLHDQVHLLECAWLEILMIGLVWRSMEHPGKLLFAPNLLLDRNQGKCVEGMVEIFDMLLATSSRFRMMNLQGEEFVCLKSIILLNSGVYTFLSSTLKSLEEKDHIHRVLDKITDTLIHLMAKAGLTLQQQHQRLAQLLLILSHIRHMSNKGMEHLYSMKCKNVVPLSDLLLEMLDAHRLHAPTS
His6-ERα298-554 WT (ERα ligand-binding domain), sequence (P03372 298-554): as the sequence (P03372 298-554 Y537S) above, with S240Y counted along it
His6-ERα298-554 D538G mutant (ERα ligand-binding domain), sequence (P03372 298-554 D538G): as the sequence (P03372 298-554 Y537S) above, with S240Y, D241G counted along it

| SMILES | IC50 [1] [nM] | IC50 [2] [nM] | IC50 [3] [nM] | DC50 (ERα in MCF7 cells) [nM] | % Degradation at 3 μM (ERα in MCF7 cells) [%] |
| --- | --- | --- | --- | --- | --- |
| Cc1ccc(C2=C(c3ccc(O[C@H]4CCN(CCCF)C4)cc3)c3cc(O)ccc3SCC2)c(F)c1 [Example 171, 4-(2-fluoro-4-methyl-phenyl)-5-[4-[(3S)-1-(3-fluoropropyl)pyrrolidin-3-yl]oxyphenyl]-2,3-dihydro-1-benzothiepin-7-ol] | 24 | 140 | 87 | 0.2 | 85 |
| Oc1ccc(C2=C(c3ccc(O[C@H]4CCN(CCCF)C4)cc3)c3cc(O)ccc3SCC2)cc1 [Example 177, 5-[4-[(3S)-1-(3-fluoropropyl)pyrrolidin-3-yl]oxyphenyl]-4-(4-hydroxyphenyl)-2,3-dihydro-1-benzothiepin-7-ol] | 4 | 41 | 29 | 0.2 | 75 |
| Oc1ccc2c(c1)C(c1ccc(O[C@H]3CCN(CCCF)C3)cc1)=C(c1ccc(F)c(Cl)c1)CCS2 [Example 174, 4-(3-chloro-4-fluoro-phenyl)-5-[4-[(3S)-1-(3-fluoropropyl)pyrrolidin-3-yl]oxyphenyl]-2,3-dihydro-1-benzothiepin-7-ol] | 53 | 422 | 222 | 4 | 81 |
| Oc1ccc2c(c1)OCCC(c1cccc(F)c1Cl)=C2c1ccc(O[C@H]2CCN(CCCF)C2)cc1 [Example 95, 4-(2-chloro-3-fluoro-phenyl)-5-[4-[(3S)-1-(3-fluoropropyl)pyrrolidin-3-yl]oxyphenyl]-2,3-dihydro-1-benzoxepin-8-ol] | 6 | 43 | 20 | 0.2 | 93 |
| Oc1ccc2c(c1Cl)OCCC(c1ccc3c(c1)CCN3)=C2c1ccc(O[C@H]2CCN(CCCF)C2)cc1 [Example 115, 9-chloro-5-[4-[(3S)-1-(3-fluoropropyl)pyrrolidin-3-yl]oxyphenyl]-4-indolin-5-yl-2,3-dihydro-1-benzoxepin-8-ol] | 88 | 322 | 200 | 6 | 77 |
| Oc1ccc(C2=C(c3ccc(O[C@H]4CCN(CCCF)C4)cc3)c3ccc(O)cc3OCC2)c(F)c1 [Example 94, 4-(2-fluoro-4-hydroxy-phenyl)-5-[4-[(3S)-1-(3-fluoropropyl)pyrrolidin-3-yl]oxyphenyl]-2,3-dihydro-1-benzoxepin-8-ol] | 2 | 10 | 6 | 0.2 | 87 |
| O=S1(=O)CCC(c2cccc(O)c2)=C(c2ccc(O[C@H]3CCN(CCCF)C3)cc2)c2ccc(O)cc21 [Example 228, 5-[4-[(3S)-1-(3-fluoropropyl)pyrrolidin-3-yl]oxyphenyl]-4-(3-hydroxyphenyl)-1,1-dioxo-2,3-dihydro-benzothiepin-8-ol] | 6 | 73 | 38 | 0.2 | 87 |
| Cc1c(Cl)cccc1C1=C(c2ccc(O[C@H]3CCN(CCCF)C3)cc2)c2ccc(O)cc2SCC1 [Example 163, 4-(3-chloro-2-methyl-phenyl)-5-[4-[(3S)-1-(3-fluoropropyl)pyrrolidin-3-yl]oxyphenyl]-2,3-dihydro-1-benzothiepin-8-ol] | 5 | 24 | 19 | 0.6 | 94 |
| Cc1ccc(C2=C(c3ccc(O[C@H]4CCN(CCCF)C4)cc3)c3ccc(O)c(C)c3OCC2)c(F)c1 [Example 111, 4-(2-fluoro-4-methyl-phenyl)-5-[4-[(3S)-1-(3-fluoropropyl)pyrrolidin-3-yl]oxyphenyl]-9-methyl-2,3-dihydro-1-benzoxepin-8-ol] | 91 | 822 | 407 | 6 | 86 |
| O=S1(=O)CCC(c2ccc(Cl)cc2F)=C(c2ccc(O[C@H]3CCN(CCCF)C3)cc2)c2ccc(O)cc21 [Example 233, 4-(4-chloro-2-fluoro-phenyl)-5-[4-[(3S)-1-(3-fluoropropyl)pyrrolidin-3-yl]oxyphenyl]-1,1-dioxo-2,3-dihydro-1λ^6-benzothiepin-8-ol] | 20 | 128 | 70 | 0.2 | 94 |
| Oc1ccc2c(c1)SCC(c1ccc3c(c1)CCN3)=C2c1ccc(O[C@H]2CCN(CCCF)C2)cc1 [Example 20, 4-[4-[(3S)-1-(3-fluoropropyl)pyrrolidin-3-yl]oxyphenyl]-3-indolin-5-yl-2H-thiochromen-7-ol] | 15 | 46 | 21 | 3 | 86 |
| Oc1ccc2c(c1F)OCCC(c1cccc3[nH]ccc13)=C2c1ccc(O[C@H]2CCN(CCCF)C2)cc1 [Example 133, 9-fluoro-5-[4-[(3S)-1-(3-fluoropropyl)pyrrolidin-3-yl]oxyphenyl]-4-(1H-indol-4-yl)-2,3-dihydro-1-benzoxepin-8-ol] | 4 | 64 | 39 | 2 | 83 |
| Cc1cc2c(cc1O)OCCC(c1ccc3[nH]ccc3c1)=C2c1ccc(O[C@H]2CCN(CCCF)C2)cc1 [Example 139, 5-[4-[(3S)-1-(3-fluoropropyl)pyrrolidin-3-yl]oxyphenyl]-4-(1H-indol-5-yl)-7-methyl-2,3-dihydro-1-benzoxepin-8-ol] | 68 | 1170 | 819 | 9 | 73 |
| Oc1ccc(C2=C(c3ccc(O[C@H]4CCN(CCCF)C4)cc3)c3cc(O)ccc3CC2)c(F)c1 [Example 6, 7-(2-fluoro-4-hydroxy-phenyl)-8-[4-[(3S)-1-(3-fluoropropyl)pyrrolidin-3-yl]oxyphenyl]-5,6-dihydronaphthalen-2-ol] | 2 | 13 | 8 | 0.2 | 84 |
| Oc1ccc2c(c1)SCC(c1ccc(Cl)cc1Cl)=C2c1ccc(O[C@H]2CCN(CCCF)C2)cc1 [Example 21, 3-(2,4-dichlorophenyl)-4-[4-[(3S)-1-(3-fluoropropyl)pyrrolidin-3-yl]oxyphenyl]-2H-thiochromen-7-ol] | 9 | 47 | 19 | 3 | 92 |
| Cc1cc(F)ccc1C1=C(c2ccc(O[C@H]3CCN(CCCF)C3)cc2)c2ccc(O)cc2S(=O)(=O)CC1 [Example 234, 4-(4-fluoro-2-methyl-phenyl)-5-[4-[(3S)-1-(3-fluoropropyl)pyrrolidin-3-yl]oxyphenyl]-1,1-dioxo-2,3-dihydro-1λ^6-benzothiepin-8-ol] | 9 | 59 | 33 | 0.2 | 90 |
| Oc1ccc2c(c1)OCCC(c1cccc3c1CCN3)=C2c1ccc(O[C@H]2CCN(CCCF)C2)cc1 [Example 117, 5-[4-[(3S)-1-(3-fluoropropyl)pyrrolidin-3-yl]oxyphenyl]-4-indolin-4-yl-2,3-dihydro-1-benzoxepin-8-ol] | 32 | 309 | 214 | 3 | 92 |
